Counter-ions that a name gives are not always drawn.
Each compound was assayed on TNFα (assay: LPS Stimulated Whole Blood Measuring TNFα Levels Assay). Conditions: 24 h, LPS 200 ng/ml, immunoassay, read-out: pIC50, TNFα levels in LPS stimulated whole blood (converted).
Assay type: cell-based
Protocol: LPS Stimulated Whole Blood Measuring TNFα Levels Assay
Activation of monocytic cells by agonists of toll-like receptors such as bacterial lipopolysaccharide (LPS) results in production of key inflammatory mediators including TNFα. Such pathways are widely considered to be central to the pathophysiology of a range of auto-immune and inflammatory disorders.
Compounds to be tested are diluted to give a range of appropriate concentrations and 1 ul of the dilution stocks is added to wells of a 96 plate. Following addition of whole blood (130 ul) the plates are incubated at 37 degrees (5% CO2) for 30 min before the addition of 10 ul of 2.8 ug/ml lipopolysaccharides (LPS), diluted in complete RPMI 1640 (final concentration=200 ng/ml), to give a total volume of 140 ul per well. After further incubation for 24 hours at 37 degrees, 140 ul of PBS are added to each well. The plates are sealed, shaken for 10 minutes and then centrifuged (2500 rpm×10 min). 100 ul of the supernatant are removed and TNFα levels assayed by immunoassay (typically by MesoScale Discovery technology) either immediately or following storage at −20 degrees. Dose response curves for each compound was generated from the data and an IC50 value was calculated.

| SMILES | IC50 |
| --- | --- |
| CC(=O)N1c2ccc(-c3ccn[nH]3)cc2[C@@H](NC(=O)OC(C)C)C[C@H]1C (racemic) [Example 31, 1-methylethyl[(cis)-1-acetyl-2-methyl-6-(1H-pyrazol-5-yl)-1,2,3,4-tetrahydro-4-quinolinyl]carbamate] | ≤ 6.31 µM |
| CC(=O)N1c2ccc(-c3ccc(N4CCN(C(=O)OC(C)(C)C)CC4)nc3)cc2[C@@H](NC(=O)OC(C)C)C[C@H]1C (racemic) [Example 8, 1,1-dimethylethyl 4-{5-[(cis)-1-acetyl-2-methyl-4-({[(1-methylethyl)oxy]carbonyl}amino)-1,2,3,4-tetrahydro-6-quinolinyl]-2-pyridinyl}-1-piperazinecarboxylate] | ≤ 6.31 µM |
| CC(=O)N1c2ccc(-c3ccc(N4CCNCC4)nn3)cc2[C@@H](NC(=O)OC(C)C)C[C@H]1C (racemic) [Example 45, 1-methylethyl {(cis)-1-acetyl-2-methyl-6-[6-(1-piperazinyl)-3-pyridazinyl]-1,2,3,4-tetrahydro-4-quinolinyl}carbamate hydrochloride] | ≤ 6.31 µM |
| CC(=O)N1c2ccc(-c3cnc(N4CCOCC4)nc3)cc2[C@@H](NC(=O)OC(C)C)C[C@H]1C (racemic) [Example 51, 1-methylethyl {(cis)-1-acetyl-2-methyl-6-[2-(4-morpholinyl)-5-pyrimidinyl]-1,2,3,4-tetrahydro-4-quinolinyl}carbamate hydrochloride] | ≤ 6.31 µM |
| CNc1ccc(-c2ccc3c(c2)[C@@H](NC(=O)OC(C)C)C[C@@H](C)N3C(C)=O)cn1 (racemic) [Example 53, 1-methylethyl {(cis)-1-acetyl-2-methyl-6-[6-(methylamino)-3-pyridinyl]-1,2,3,4-tetrahydro-4-quinolinyl}carbamate hydrochloride] | ≤ 6.31 µM |
| CC(=O)N1c2ccc(-c3ccc(C#N)cc3)cc2[C@H](NC(=O)OC(C)C)C[C@@H]1C [Example 120, 1-Methylethyl[(2S,4R)-1-acetyl-6-(4-cyanophenyl)-2-methyl-1,2,3,4-tetrahydro-4-quinolinyl]carbamate] | ≤ 6.31 µM |
| CC(=O)N1c2ccc(-c3ccc(CN4CCCCC4)o3)cc2[C@@H](NC(=O)OC(C)C)C[C@H]1C (racemic) [Example 22, 1-methylethyl {(cis)-1-acetyl-2-methyl-6-[5-(1-piperidinylmethyl)-2-furanyl]-1,2,3,4-tetrahydro-4-quinolinyl}carbamate (formic acid salt)] | ≤ 6.31 µM |
| CC(=O)N1c2ccc(-c3sc(C)nc3C)cc2[C@@H](NC(=O)OC(C)C)C[C@H]1C (racemic) [Example 32, 1-methylethyl[(cis)-1-acetyl-6-(2,4-dimethyl-1,3-thiazol-5-yl)-2-methyl-1,2,3,4-tetrahydro-4-quinolinyl]carbamate] | ≤ 6.31 µM |
| CNCc1cccc(-c2ccc3c(c2)[C@H](NC(=O)OC(C)C)C[C@H](C)N3C(C)=O)c1 [Example 111, 1-Methylethyl((2S,4R)-1-acetyl-2-methyl-6-{3-[(methylamino)methyl]phenyl}-1,2,3,4-tetrahydro-4-quinolinyl)carbamate hydrochloride] | ≤ 6.31 µM |
| CC(=O)N1c2ccc(-c3cnc(N4CCNCC4)cn3)cc2[C@@H](NC(=O)OC(C)C)C[C@H]1C (racemic) [Example 43, 1-methylethyl {(cis)-1-acetyl-2-methyl-6-[5-(1-piperazinyl)-2-pyrazinyl]-1,2,3,4-tetrahydro-4-quinolinyl}carbamate hydrochloride] | ≤ 6.31 µM |
| CC(=O)N1c2ccc(Br)cc2[C@H](NC(=O)OC(C)C)C[C@@H]1C [Example 4, 1-methylethyl[(2S,4R)-1-acetyl-6-bromo-2-methyl-1,2,3,4-tetrahydro-4-quinolinyl]carbamate] | ≤ 6.31 µM |
| CC(=O)N1c2ccc(-c3cnn(CCN4CCC(N)CC4)c3)cc2[C@@H](NC(=O)OC(C)C)C[C@H]1C (racemic) [Example 39, 1-methylethyl((cis)-1-acetyl-6-{1-[2-(4-amino-1-piperidinyl)ethyl]-1H-pyrazol-4-yl}-2-methyl-1,2,3,4-tetrahydro-4-quinolinyl)carbamate dihydrochloride] | ≤ 6.31 µM |
| CC(=O)N1c2ccc(-c3ccc(CN4CCCC4)cc3)cc2[C@H](NC(=O)OC(C)C)C[C@@H]1C (relative stereo) [Example 30, 1-methylethyl {(cis)-1-acetyl-2-methyl-6-[4-(1-pyrrolidinylmethyl)phenyl]-1,2,3,4-tetrahydro-4-quinolinyl}carbamate hydrochloride] | ≤ 6.31 µM |
| CC(=O)N1c2ccc(-c3ccc(CN4CCCCC4)cc3)cc2[C@@H](NC(=O)OC2CCCC2)C[C@H]1C (racemic) [Example 36, cyclopentyl {(cis)-1-acetyl-2-methyl-6-[4-(1-piperidinylmethyl)phenyl]-1,2,3,4-tetrahydro-4-quinolinyl}carbamate] | ≤ 6.31 µM |
| CC(=O)N1c2ccc(-c3cnc(N)nc3)cc2[C@@H](NC(=O)OC(C)C)C[C@H]1C (racemic) [Example 50, 1-methylethyl[(cis)-1-acetyl-6-(2-amino-5-pyrimidinyl)-2-methyl-1,2,3,4-tetrahydro-4-quinolinyl]carbamate hydrochloride] | ≤ 6.31 µM |
| CC(=O)N1c2ccc(-c3cnc(N4CCNCC4)nc3)cc2[C@@H](NC(=O)OC(C)C)C[C@H]1C (racemic) [Example 44, 1-methylethyl {(cis)-1-acetyl-2-methyl-6-[2-(1-piperazinyl)-5-pyrimidinyl]-1,2,3,4-tetrahydro-4-quinolinyl}carbamate hydrochloride] | ≤ 6.31 µM |
